Common to all, as to type: cell-based
The target in experiment [1] is T1, NiTrac1 (CHL1/NRT1.1/NPF6.3 fusion) (Arabidopsis thaliana, UniProt Q05085).
T1 construct: full-length ORF between N-terminal Aphrodite t9 (yellow FP) and C-terminal mCerulean (pDRFlip30); expressed in yeast BJ5465; intact cells
T1 sequence (Q05085 1-590): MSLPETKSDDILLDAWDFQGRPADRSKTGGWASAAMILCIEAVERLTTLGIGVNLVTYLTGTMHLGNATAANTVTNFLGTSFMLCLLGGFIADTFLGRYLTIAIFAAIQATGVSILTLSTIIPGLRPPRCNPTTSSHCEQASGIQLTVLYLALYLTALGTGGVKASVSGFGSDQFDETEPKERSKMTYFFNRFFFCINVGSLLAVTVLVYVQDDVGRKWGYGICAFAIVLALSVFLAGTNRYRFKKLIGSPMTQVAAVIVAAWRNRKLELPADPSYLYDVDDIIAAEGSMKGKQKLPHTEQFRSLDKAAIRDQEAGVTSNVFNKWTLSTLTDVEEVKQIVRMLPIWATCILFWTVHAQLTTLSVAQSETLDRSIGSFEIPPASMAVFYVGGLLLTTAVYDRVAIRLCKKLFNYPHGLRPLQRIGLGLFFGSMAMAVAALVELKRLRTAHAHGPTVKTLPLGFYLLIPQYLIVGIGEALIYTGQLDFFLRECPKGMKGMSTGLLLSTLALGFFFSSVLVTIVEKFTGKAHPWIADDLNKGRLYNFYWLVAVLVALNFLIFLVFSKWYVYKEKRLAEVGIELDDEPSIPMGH
The experiment is described as follows: fluorescence response (donor quenching) of sensor in yeast, plate reader. Particulars: 50 mM MES pH 5.5; high-affinity phase of biphasic response (low-affinity phase is a second site); excitation 428 nm.

For experiment [2], the target named is T2, CHL1/NRT1.1/NPF6.3 (Arabidopsis thaliana, UniProt Q05085).
T2 construct: CHL1 cDNA without fluorescent proteins in pOO2-GW; cRNA-injected Xenopus laevis oocytes
T2 sequence (Q05085 1-590): T1 sequence (Q05085 1-590)
Nature of the experiment: […]-nitrate uptake and TEVC currents in Xenopus oocytes. The following applies: 0.25 and 10 mM K15NO3, pH 5.5 (uptake); 0.5 and 10 mM CsNO3 (TEVC).

For experiment [3], the target named is T3, PepTrac4 (PTR4 fusion) (Arabidopsis thaliana, UniProt Q84WG0).
T3 construct: gene NPF8.4; full-length ORF between N-terminal Aphrodite and C-terminal mCerulean; expressed in yeast; intact cells
T3 sequence (Q84WG0 1-545): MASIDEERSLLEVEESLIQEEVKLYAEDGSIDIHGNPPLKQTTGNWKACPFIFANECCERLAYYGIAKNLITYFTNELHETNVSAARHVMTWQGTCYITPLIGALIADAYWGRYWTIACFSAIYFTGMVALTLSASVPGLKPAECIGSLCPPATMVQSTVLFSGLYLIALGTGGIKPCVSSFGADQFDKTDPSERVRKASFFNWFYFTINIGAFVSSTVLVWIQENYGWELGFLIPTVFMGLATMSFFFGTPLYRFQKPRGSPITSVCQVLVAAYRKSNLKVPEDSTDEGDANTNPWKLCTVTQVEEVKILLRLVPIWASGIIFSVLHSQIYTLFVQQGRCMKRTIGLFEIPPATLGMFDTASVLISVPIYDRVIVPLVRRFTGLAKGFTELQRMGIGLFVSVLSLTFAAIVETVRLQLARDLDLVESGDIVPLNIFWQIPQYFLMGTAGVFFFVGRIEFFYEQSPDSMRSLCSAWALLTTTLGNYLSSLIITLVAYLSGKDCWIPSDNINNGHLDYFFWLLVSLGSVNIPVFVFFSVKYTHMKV
Nature of the experiment: FRET ratio change of sensor in yeast. The following applies: 0.5 mM diglycine; 50 mM MES pH 5.5; excitation 428 nm.

Experiment [4] concerns the target T4, PepTrac1 (PTR1 fusion) (Arabidopsis thaliana, UniProt Q9M390).
T4 construct: gene NPF8.1; full-length ORF between N-terminal Aphrodite and C-terminal mCerulean; expressed in yeast; intact cells
T4 sequence (Q9M390 1-570): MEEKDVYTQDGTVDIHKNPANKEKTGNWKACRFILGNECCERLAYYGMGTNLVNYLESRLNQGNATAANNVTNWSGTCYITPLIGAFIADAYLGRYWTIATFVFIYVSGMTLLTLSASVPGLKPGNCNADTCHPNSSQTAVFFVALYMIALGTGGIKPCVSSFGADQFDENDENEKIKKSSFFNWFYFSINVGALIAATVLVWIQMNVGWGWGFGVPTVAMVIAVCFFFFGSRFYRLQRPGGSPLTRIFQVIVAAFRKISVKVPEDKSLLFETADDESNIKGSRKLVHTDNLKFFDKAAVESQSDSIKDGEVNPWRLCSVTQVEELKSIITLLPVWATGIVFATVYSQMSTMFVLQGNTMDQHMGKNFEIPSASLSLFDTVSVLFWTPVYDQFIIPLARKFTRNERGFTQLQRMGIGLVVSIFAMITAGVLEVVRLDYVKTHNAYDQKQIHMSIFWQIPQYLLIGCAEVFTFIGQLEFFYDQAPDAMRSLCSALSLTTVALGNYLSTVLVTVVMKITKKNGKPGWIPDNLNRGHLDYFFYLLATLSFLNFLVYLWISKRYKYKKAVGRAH
The experiment is described as follows: fluorescence response (donor quenching) of sensor in yeast. The following applies: 0.5 mM diglycine; 50 mM MES pH 5.5; excitation 428 nm.

The target in experiment [5] is T5, PepTrac2 (PTR2 fusion) (Arabidopsis thaliana, UniProt P46032).
T5 construct: gene NPF8.3; full-length ORF between N-terminal Aphrodite and C-terminal mCerulean; expressed in yeast; intact cells
T5 sequence (P46032 1-585): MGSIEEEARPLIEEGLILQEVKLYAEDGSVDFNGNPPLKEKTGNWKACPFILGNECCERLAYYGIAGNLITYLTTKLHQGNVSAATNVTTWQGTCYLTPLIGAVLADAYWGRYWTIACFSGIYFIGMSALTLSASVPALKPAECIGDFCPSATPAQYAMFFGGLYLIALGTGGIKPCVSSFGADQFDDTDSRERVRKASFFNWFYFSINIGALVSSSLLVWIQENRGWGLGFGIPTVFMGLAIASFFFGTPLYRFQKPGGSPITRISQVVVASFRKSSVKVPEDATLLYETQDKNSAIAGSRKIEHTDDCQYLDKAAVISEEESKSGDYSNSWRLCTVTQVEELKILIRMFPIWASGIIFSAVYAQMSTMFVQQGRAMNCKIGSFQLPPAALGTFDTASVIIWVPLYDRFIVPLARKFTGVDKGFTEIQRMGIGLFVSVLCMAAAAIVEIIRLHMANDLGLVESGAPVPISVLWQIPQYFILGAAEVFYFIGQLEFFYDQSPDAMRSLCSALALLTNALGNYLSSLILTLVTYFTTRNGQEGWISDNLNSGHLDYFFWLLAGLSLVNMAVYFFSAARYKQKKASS
The description is as above. The following applies: 0.5 mM diglycine; 50 mM MES pH 5.5; excitation 428 nm.

Experiment [6] has as its target T6, PepTrac5 (PTR5 fusion) (Arabidopsis thaliana, UniProt Q9LFB8).
T6 construct: gene NPF8.2; full-length ORF between N-terminal Aphrodite and C-terminal mCerulean; expressed in yeast; intact cells
T6 sequence (Q9LFB8 1-570): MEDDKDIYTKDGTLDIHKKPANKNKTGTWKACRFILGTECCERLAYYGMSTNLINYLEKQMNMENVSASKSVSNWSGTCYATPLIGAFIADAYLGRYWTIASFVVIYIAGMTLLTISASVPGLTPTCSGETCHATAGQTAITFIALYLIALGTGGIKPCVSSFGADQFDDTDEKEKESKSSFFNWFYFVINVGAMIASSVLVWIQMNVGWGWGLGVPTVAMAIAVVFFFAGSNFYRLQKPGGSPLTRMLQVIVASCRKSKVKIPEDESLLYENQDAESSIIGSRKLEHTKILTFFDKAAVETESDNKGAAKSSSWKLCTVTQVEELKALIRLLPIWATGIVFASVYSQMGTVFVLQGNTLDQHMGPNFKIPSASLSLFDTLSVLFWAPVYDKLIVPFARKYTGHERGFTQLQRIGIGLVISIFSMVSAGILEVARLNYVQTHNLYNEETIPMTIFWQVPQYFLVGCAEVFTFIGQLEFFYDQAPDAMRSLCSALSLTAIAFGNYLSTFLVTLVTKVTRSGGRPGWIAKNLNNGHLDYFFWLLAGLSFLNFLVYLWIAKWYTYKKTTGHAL
The experiment is described as above. Particulars: 0.5 mM diglycine; 50 mM MES pH 5.5; excitation 428 nm.

SMILES strings stand for the structures. Residues, ends and D or L forms follow the SMILES beside them.

For `O=[N+]([O-])O` [nitrate], in experiment [1], the Km is ~ 75.1 ± 21 μM. Besides, in experiment [2], the “15N-nitrate uptake and TEVC currents in Xenopus oocytes” value is “In response to nitrate addition, CHL1 expressing oocytes showed an inward current”.

In the case of `NCC(=O)NCC(=O)O` [diglycine] (H-Gly-Gly-OH), the “FRET ratio change of sensor in yeast” value in experiment [3] was “PepTrac4 responded to substrate addition with a ratio change”. The “fluorescence response (donor quenching) of sensor in yeast” value was “PepTrac1, PepTrac2, and PepTrac5 sensors all responded with donor quenching” in experiment [4]; “PepTrac1, PepTrac2, and PepTrac5 sensors all responded with donor quenching” in experiment [5]; “PepTrac1, PepTrac2, and PepTrac5 sensors all responded with donor quenching” in experiment [6].

Source of the values: publication PMC3950950, “Fluorescent sensors for activity and regulation of the nitrate transceptor CHL1/NRT1.1 and oligopeptide transporters” (eLife, 2014).
